Test results reported in US11643439B2, “Multi-target compound with anticoagulation and antiplatelet activity, preparation method therefor, and use thereof” (SHAANXI MICOT TECHNOLOGY LIMITED COMPANY, priority 2015, dated 2023).
Bridge positions count the residues as written; N and C are the ends. Square brackets hold non-standard residues; d marks the D form. Peptide text beside a SMILES is read from it. hArg = N=C(N)NCCCC[C@H](N)C(=O)O; Mpa = O=C(O)CCS

System: ADP-induced human platelet aggregation
Assay: ADP-induced human platelet aggregation in vitro
Assay type: cell-based
Settings: human PRP, 3 × 10−6 mol/L
Experimental: The drawn blood was centrifuged at 810 rpm for 8 minutes to obtain platelet rich plasma (PRP), which was taken out, then the blood sample was further centrifuged at 3510 rpm for 8 minutes to obtain platelet poor plasma (PPP).
Determination of platelet aggregation: A platelet aggregation instrument was started up and preheated for 30 minutes, and then calibrated with PPP. Into the test cups 270 μl of PRP was added, and then 10 μl of polypeptide 1, polypeptide 2, polypeptide 3 or polypeptide 4 (1.0×10^−7 mol/L) and/or 20 μl of physiological saline were added respectively, till a total volume of 300 μl. After incubation for 5 min, 5 μl of inducer ADP and 5 μl of epinephrine were added to start the test. After 5 minutes, the test was completed, and the maximum aggregation rate within the 5 minutes was recorded, and the data and maps were printed.

N=C(N)NCCCC[C@@H]1NC(=O)CCSSC[C@@H](C(N)=O)NC(=O)[C@@H]2CCCN2C(=O)[C@H](Cc2c[nH]c3ccccc23)NC(=O)[C@H](CC(=O)O)NC(=O)CNC1=O [Integrilin] ([Mpa][hArg]GDWPC-NH2; disulfide 1-7)
inhibitory rate of platelet aggregation: 100%
